Patent US12723063B2, “GIPR-agonist compounds” (Eli Lilly and Company, priority 2019, dated 2026)
*1 amine or outer side, *2 acyl side, *3 side chain or, on linkers, in order; H or OH if unused. Where a SMILES comes first, the peptide text is derived from it. Side-chain parts run from the residue outwards. [ ]: non-standard residue; d: D form. The star is where a group is joined. C20 diacid = O=C(O)CCCCCCCCCCCCCCCCCCC(=O)*; αMePhe(2-F) = C[C@](N)(Cc1ccccc1F)C(=O)O; γGlu = O=C(O)[C@H](CCC(=O)[*:2])N[*:1]; αMeF = C[C@](N)(Cc1ccccc1)C(=O)O; 4Pal = N[C@@H](Cc1ccncc1)C(=O)O; αMeL = CC(C)C[C@](C)(N)C(=O)O; Iva = CC[C@](C)(N)C(=O)O; AEEA = NCCOCCOCC(=O)O; Aib = CC(C)(N)C(=O)O

Biological target: T1, human GIPR (Homo sapiens, UniProt P48546)
T1 construct: expressed in transfected cells; crude membranes
T1 sequence (P48546 22-466): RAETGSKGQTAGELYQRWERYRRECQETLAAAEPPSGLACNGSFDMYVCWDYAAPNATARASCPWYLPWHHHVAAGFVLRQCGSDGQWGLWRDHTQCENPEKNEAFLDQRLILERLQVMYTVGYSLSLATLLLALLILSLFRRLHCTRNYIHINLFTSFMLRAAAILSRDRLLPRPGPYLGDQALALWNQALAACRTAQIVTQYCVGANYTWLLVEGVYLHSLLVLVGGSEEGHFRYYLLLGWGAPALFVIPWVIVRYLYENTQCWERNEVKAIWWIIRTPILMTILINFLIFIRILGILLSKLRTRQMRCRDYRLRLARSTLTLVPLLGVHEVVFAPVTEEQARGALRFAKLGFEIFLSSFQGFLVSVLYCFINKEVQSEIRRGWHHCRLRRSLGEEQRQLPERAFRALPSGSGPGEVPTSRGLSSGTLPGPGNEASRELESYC
Assay: [125I]-GIP binding, SPA with WGA beads, 0.1% bacitracin
Conditions: geometric mean, read-out: hGIPR Ki
Outline: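 Ki values are geometric means (SEM, n independent days), derived from four-parameter nonlinear regression of IC50. Membranes came from hGIPR-expressing CHO cells.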

CC[C@H](C)[C@H](NC(=O)[C@H](Cc1ccccc1)NC(=O)[C@@H](NC(=O)CNC(=O)[C@H](CCC(=O)O)NC(=O)C(C)(C)NC(=O)[C@@H](N)Cc1ccc(O)cc1)[C@@H](C)O)C(=O)N[C@@H](CO)C(=O)N[C@@H](CC(=O)O)C(=O)N[C@@H](Cc1ccc(O)cc1)C(=O)N[C@@H](CO)C(=O)N[C@H](C(=O)N[C@@](C)(CC(C)C)C(=O)N[C@@H](CC(C)C)C(=O)N[C@@H](CC(=O)O)C(=O)N[C@@H](CCCCN)C(=O)N[C@@H](CCCCNC(=O)COCCOCCNC(=O)COCCOCCNC(=O)CC[C@H](NC(=O)CCCCCCCCCCCCCCCCC(=O)O)C(=O)O)C(=O)N[C@@H](Cc1c[nH]cn1)C(=O)N[C@@H](CCC(N)=O)C(=O)NC(C)(C)C(=O)N[C@@H](CC(=O)O)C(=O)N[C@@H](Cc1ccccc1)C(=O)N[C@H](C(=O)N[C@@H](CCC(=O)O)C(=O)N[C@@H](Cc1ccncc1)C(=O)N[C@@H](CC(C)C)C(=O)N[C@@H](CC(C)C)C(=O)N[C@@H](C)C(=O)NCC(=O)NCC(=O)N1CCC[C@H]1C(=O)N[C@@H](CO)C(=O)N[C@@H](CO)C(=O)NCC(=O)N[C@@H](C)C(=O)N1CCC[C@H]1C(=O)N1CCC[C@H]1C(=O)N1CCC[C@H]1C(=O)N[C@@H](CO)C(N)=O)C(C)C)[C@@H](C)CC [Example 49]
Ki: 51.2 pM

CC[C@H](C)[C@H](NC(=O)[C@H](CO)NC(=O)[C@H](Cc1ccc(O)cc1)NC(=O)[C@H](CC(=O)O)NC(=O)[C@H](CO)NC(=O)[C@@H](NC(=O)[C@](C)(Cc1ccccc1)NC(=O)[C@@H](NC(=O)CNC(=O)[C@H](CCC(=O)O)NC(=O)C(C)(C)NC(=O)[C@@H](N)Cc1ccc(O)cc1)[C@@H](C)O)[C@@H](C)CC)C(=O)N[C@@](C)(CC(C)C)C(=O)N[C@@H](CC(C)C)C(=O)N[C@@H](CC(=O)O)C(=O)N[C@@H](CCCCN)C(=O)N[C@@H](CCCCNC(=O)COCCOCCNC(=O)COCCOCCNC(=O)CC[C@H](NC(=O)CCCCCCCCCCCCCCCCCCC(=O)O)C(=O)O)C(=O)N[C@@H](Cc1c[nH]cn1)C(=O)N[C@@H](CCC(N)=O)C(=O)NC(C)(C)C(=O)N[C@@H](CC(=O)O)C(=O)N[C@@H](Cc1ccccc1)C(=O)N[C@H](C(=O)N[C@@H](CCC(=O)O)C(=O)N[C@@H](Cc1ccncc1)C(=O)N[C@@H](CC(C)C)C(=O)N[C@@H](CC(C)C)C(=O)N[C@@H](C)C(=O)NCC(=O)NCC(=O)N1CCC[C@H]1C(=O)N[C@@H](CO)C(=O)N[C@@H](CO)C(=O)NCC(=O)N[C@@H](C)C(=O)N1CCC[C@H]1C(=O)N1CCC[C@H]1C(=O)N1CCC[C@H]1C(=O)N[C@@H](CO)C(N)=O)C(C)C [Example 50] (H-Y[Aib]EGT[αMeF]ISDYSI[αMeL]LDKK([AEEA-AEEA-γGlu-C20 diacid])HQ[Aib]DFVE[4Pal]LLAGGPSSGAPPPS-NH2)
Ki: 50.1 pM

CC[C@H](C)[C@H](NC(=O)[C@H](CO)NC(=O)[C@H](Cc1ccc(O)cc1)NC(=O)[C@H](CC(=O)O)NC(=O)[C@H](CO)NC(=O)[C@@H](NC(=O)[C@](C)(Cc1ccccc1F)NC(=O)[C@@H](NC(=O)CNC(=O)[C@H](CCC(=O)O)NC(=O)C(C)(C)NC(=O)[C@@H](N)Cc1ccc(O)cc1)[C@@H](C)O)[C@@H](C)CC)C(=O)N[C@@](C)(CC(C)C)C(=O)N[C@@H](CC(C)C)C(=O)N[C@@H](CC(=O)O)C(=O)N[C@@H](CCCCN)C(=O)N[C@@H](CCCCNC(=O)COCCOCCNC(=O)COCCOCCNC(=O)CC[C@H](NC(=O)CCCCCCCCCCCCCCCCCCC(=O)O)C(=O)O)C(=O)N[C@@H](Cc1c[nH]cn1)C(=O)N[C@@H](CCC(N)=O)C(=O)NC(C)(C)C(=O)N[C@@H](CC(=O)O)C(=O)N[C@@H](Cc1ccccc1)C(=O)N[C@H](C(=O)N[C@@H](CCC(=O)O)C(=O)N[C@@H](Cc1ccncc1)C(=O)N[C@@H](CC(C)C)C(=O)N[C@@H](CC(C)C)C(=O)N[C@@H](C)C(=O)NCC(=O)NCC(=O)N1CCC[C@H]1C(=O)N[C@@H](CO)C(=O)N[C@@H](CO)C(=O)NCC(=O)N[C@@H](C)C(=O)N1CCC[C@H]1C(=O)N1CCC[C@H]1C(=O)N1CCC[C@H]1C(=O)N[C@@H](CO)C(N)=O)C(C)C [Example 51] (H-Y[Aib]EGT[αMePhe(2-F)]ISDYSI[αMeL]LDKK([AEEA-AEEA-γGlu-C20 diacid])HQ[Aib]DFVE[4Pal]LLAGGPSSGAPPPS-NH2)
Ki: 38.6 pM

CC[C@H](C)[C@H](NC(=O)[C@H](Cc1ccccc1)NC(=O)[C@@H](NC(=O)CNC(=O)[C@H](CCC(=O)O)NC(=O)C(C)(C)NC(=O)[C@@H](N)Cc1ccc(O)cc1)[C@@H](C)O)C(=O)N[C@@H](CO)C(=O)N[C@@H](CC(=O)O)C(=O)N[C@@H](Cc1ccc(O)cc1)C(=O)N[C@@H](CO)C(=O)N[C@H](C(=O)N[C@@](C)(CC(C)C)C(=O)N[C@@H](CC(C)C)C(=O)N[C@@H](CC(=O)O)C(=O)N[C@@H](CCCCN)C(=O)N[C@@H](CCCCNC(=O)COCCOCCNC(=O)COCCOCCNC(=O)CC[C@H](NC(=O)CCCCCCCCCCCCCCCCCCC(=O)O)C(=O)O)C(=O)N[C@@H](Cc1c[nH]cn1)C(=O)N[C@@H](CCC(N)=O)C(=O)NC(C)(C)C(=O)N[C@@H](CCC(=O)O)C(=O)N[C@@H](Cc1ccccc1)C(=O)N[C@H](C(=O)N[C@@H](CCC(=O)O)C(=O)N[C@@H](Cc1ccncc1)C(=O)N[C@@H](CC(C)C)C(=O)N[C@@H](CC(C)C)C(=O)N[C@@H](C)C(=O)NCC(=O)NCC(=O)N1CCC[C@H]1C(=O)N[C@@H](CO)C(=O)N[C@@H](CO)C(=O)NCC(=O)N[C@@H](C)C(=O)N1CCC[C@H]1C(=O)N1CCC[C@H]1C(=O)N1CCC[C@H]1C(=O)N[C@@H](CO)C(N)=O)C(C)C)[C@@H](C)CC [Example 52]
Ki: 37.2 pM

CC[C@H](C)[C@H](NC(=O)[C@H](Cc1ccccc1)NC(=O)[C@@H](NC(=O)CNC(=O)[C@H](CCC(=O)O)NC(=O)C(C)(C)NC(=O)[C@@H](N)Cc1ccc(O)cc1)[C@@H](C)O)C(=O)N[C@@H](CO)C(=O)N[C@@H](CC(=O)O)C(=O)N[C@@H](Cc1ccc(O)cc1)C(=O)N[C@@H](CO)C(=O)N[C@H](C(=O)N[C@@](C)(CC(C)C)C(=O)N[C@@H](CC(C)C)C(=O)N[C@@H](CC(=O)O)C(=O)N[C@@H](CCCCN)C(=O)N[C@@H](CCCCNC(=O)COCCOCCNC(=O)COCCOCCNC(=O)CC[C@H](NC(=O)CCCCCCCCCCCCCCCCCCC(=O)O)C(=O)O)C(=O)N[C@@H](Cc1c[nH]cn1)C(=O)N[C@@H](CCC(N)=O)C(=O)NC(C)(C)C(=O)N[C@@H](CC(=O)O)C(=O)N[C@@H](Cc1ccccc1)C(=O)N[C@H](C(=O)N[C@@H](CCC(=O)O)C(=O)N[C@@H](Cc1ccc(O)cc1)C(=O)N[C@@H](CC(C)C)C(=O)N[C@@H](CC(C)C)C(=O)N[C@@H](C)C(=O)NCC(=O)NCC(=O)N1CCC[C@H]1C(=O)N[C@@H](CO)C(=O)N[C@@H](CO)C(=O)NCC(=O)N[C@@H](C)C(=O)N1CCC[C@H]1C(=O)N1CCC[C@H]1C(=O)N1CCC[C@H]1C(=O)N[C@@H](CO)C(N)=O)C(C)C)[C@@H](C)CC [Example 53] (H-Y[Aib]EGTFISDYSI[αMeL]LDKK([AEEA-AEEA-γGlu-C20 diacid])HQ[Aib]DFVEYLLAGGPSSGAPPPS-NH2)
Ki: 18.4 pM

CC[C@H](C)[C@H](NC(=O)[C@H](Cc1ccccc1)NC(=O)[C@@H](NC(=O)CNC(=O)[C@H](CCC(=O)O)NC(=O)C(C)(C)NC(=O)[C@@H](N)Cc1ccc(O)cc1)[C@@H](C)O)C(=O)N[C@@H](CO)C(=O)N[C@@H](CC(=O)O)C(=O)N[C@@H](Cc1ccc(O)cc1)C(=O)N[C@@H](CO)C(=O)N[C@H](C(=O)N[C@@](C)(CC(C)C)C(=O)N[C@@H](CC(C)C)C(=O)N[C@@H](CC(=O)O)C(=O)N[C@@H](CCCCN)C(=O)N[C@@H](CCCCNC(=O)COCCOCCNC(=O)COCCOCCNC(=O)CC[C@H](NC(=O)CCCCCCCCCCCCCCCCCCC(=O)O)C(=O)O)C(=O)N[C@@H](Cc1c[nH]cn1)C(=O)N[C@@H](CCC(N)=O)C(=O)NC(C)(C)C(=O)N[C@@H](CC(=O)O)C(=O)N[C@@H](Cc1ccccc1)C(=O)N[C@H](C(=O)N[C@@H](CCC(=O)O)C(=O)N[C@@H](Cc1c[nH]c2ccccc12)C(=O)N[C@@H](CC(C)C)C(=O)N[C@@H](CC(C)C)C(=O)N[C@@H](C)C(=O)NCC(=O)NCC(=O)N1CCC[C@H]1C(=O)N[C@@H](CO)C(=O)N[C@@H](CO)C(=O)NCC(=O)N[C@@H](C)C(=O)N1CCC[C@H]1C(=O)N1CCC[C@H]1C(=O)N1CCC[C@H]1C(=O)N[C@@H](CO)C(N)=O)C(C)C)[C@@H](C)CC [Example 54] (H-Y[Aib]EGTFISDYSI[αMeL]LDKK([AEEA-AEEA-γGlu-C20 diacid])HQ[Aib]DFVEWLLAGGPSSGAPPPS-NH2)
Ki: 32.6 pM

CC[C@H](C)[C@H](NC(=O)[C@H](CO)NC(=O)[C@H](Cc1ccc(O)cc1)NC(=O)[C@H](CC(=O)O)NC(=O)[C@H](CO)NC(=O)[C@@H](NC(=O)[C@](C)(CC)NC(=O)[C@@H](NC(=O)CNC(=O)[C@H](CCC(=O)O)NC(=O)C(C)(C)NC(=O)[C@@H](N)Cc1ccc(O)cc1)[C@@H](C)O)[C@@H](C)CC)C(=O)N[C@@](C)(CC(C)C)C(=O)N[C@@H](CC(C)C)C(=O)N[C@@H](CC(=O)O)C(=O)N[C@@H](CCCCN)C(=O)N[C@@H](CCCCNC(=O)COCCOCCNC(=O)COCCOCCNC(=O)CC[C@H](NC(=O)CCCCCCCCCCCCCCCCCCC(=O)O)C(=O)O)C(=O)N[C@@H](Cc1c[nH]cn1)C(=O)N[C@@H](CCC(N)=O)C(=O)NC(C)(C)C(=O)N[C@@H](CC(=O)O)C(=O)N[C@@H](Cc1ccccc1)C(=O)N[C@H](C(=O)N[C@@H](CCC(=O)O)C(=O)N[C@@H](Cc1ccncc1)C(=O)N[C@@H](CC(C)C)C(=O)N[C@@H](CC(C)C)C(=O)N[C@@H](C)C(=O)NCC(=O)NCC(=O)N1CCC[C@H]1C(=O)N[C@@H](CO)C(=O)N[C@@H](CO)C(=O)NCC(=O)N[C@@H](C)C(=O)N1CCC[C@H]1C(=O)N1CCC[C@H]1C(=O)N1CCC[C@H]1C(=O)N[C@@H](CO)C(N)=O)C(C)C [Example 55] (H-Y[Aib]EGT[Iva]ISDYSI[αMeL]LDKK([AEEA-AEEA-γGlu-C20 diacid])HQ[Aib]DFVE[4Pal]LLAGGPSSGAPPPS-NH2)
Ki: 33.1 pM
